ChEMBL document CHEMBL1201862, “PubChem BioAssay data set” (2004)
Activity calls are given as the source filed them. Cut-off read from the data, not from the text of the source, for most assays here: actives have a measured EC50 and inactives only a lower limit.

How the values were obtained:
[1] = target: Peroxisome proliferator-activated receptor gamma/Nuclear receptor coactivator 2 (Homo sapiens, UniProt P37231); assay type: functional;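 note: agonist potency for raising coactivator recruitment to the receptor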
[2] = target: Peroxisome proliferator-activated receptor gamma/Nuclear receptor coactivator 3 (Homo sapiens, UniProt P37231); assay type: functional;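 note: agonist potency for raising coactivator recruitment to the receptor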
[3] = target: ADP-ribosylation factor GTPase-activating protein 1 (Rattus norvegicus, UniProt Q62848); assay: Fluorescence polarization-based biochemical high throughput dose response screening assay to identify inhibitors of ADP-ribosylation factor GTPase activating protein 1 (ARFGAP1).; assay type: functional
[4] = target: Peroxisome proliferator-activated receptor gamma/Nuclear receptor coactivator 1 (Homo sapiens, UniProt P37231); assay type: functional;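 note: agonist potency as compounds enhance coactivator SRC-1 recruitment to PPARgamma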
[5] = target: T1, Alkaline phosphatase, tissue-nonspecific isozyme (Homo sapiens, UniProt P05186)
T1 sequence (P05186 whole entry): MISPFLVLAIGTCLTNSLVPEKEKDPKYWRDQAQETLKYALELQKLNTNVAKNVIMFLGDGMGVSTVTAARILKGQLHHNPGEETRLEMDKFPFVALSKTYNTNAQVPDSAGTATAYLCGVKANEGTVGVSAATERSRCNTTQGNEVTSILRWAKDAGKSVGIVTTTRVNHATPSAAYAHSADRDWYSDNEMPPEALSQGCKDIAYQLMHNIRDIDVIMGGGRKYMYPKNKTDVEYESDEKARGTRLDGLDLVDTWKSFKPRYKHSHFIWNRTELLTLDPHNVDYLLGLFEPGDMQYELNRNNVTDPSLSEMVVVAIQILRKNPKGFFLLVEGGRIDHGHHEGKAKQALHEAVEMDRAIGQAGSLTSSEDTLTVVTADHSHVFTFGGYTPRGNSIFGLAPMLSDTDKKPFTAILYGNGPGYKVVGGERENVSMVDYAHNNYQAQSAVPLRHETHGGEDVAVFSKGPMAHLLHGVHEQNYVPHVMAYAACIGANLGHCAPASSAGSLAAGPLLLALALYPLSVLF

[6] = Luminescence-based counterscreen assay for KLF5 inhibitors: dose response cell-based high throughput screening assay to identify cytotoxic compounds using the IEC-6 intestinal epithelial cell line. [Related pubchem assays: 1700 (Primary screen.), 1834 (Confirmation screen.), 1858 (Summary AID.), 1905 (Counterscreen.)]; assay type: functional
[7] = off-target signal loss in HeLa-CEM21 co-culture – HeLa F-luc CTL cells, cherry-picked, counter-screen for HIV-1 Env fusion inhibitor project, dose response (AID 652040); assay type: functional, cell-based;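 note: potency for signal decrease marking cytotoxic or nonspecific inhibition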
[8] = Luminescence Cell-Based Dose Response HTS to Identify Inhibitors of 5'UTR Stem-Loop Driven Prion Protein mRNA Translation in H4 Neuroglioblastoma Cells. [Related pubchem assays: 1827 (Project Summary), 1813 (Primary HTS)]; assay type: functional
[9] = target: T2, Microphthalmia-associated transcription factor (Homo sapiens, UniProt O75030); assay: reducers of TRPM1 reporter luminescence, concentration series – cell-based, SK-MEL-5, cherry-picked, set 3, MITF inhibitor project, dose response (AID 493073); assay type: functional;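 note: SK-MEL-5 melanoma cells with luciferase driven by the MITF target TRPM1 promoter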
T2 sequence (O75030 whole entry): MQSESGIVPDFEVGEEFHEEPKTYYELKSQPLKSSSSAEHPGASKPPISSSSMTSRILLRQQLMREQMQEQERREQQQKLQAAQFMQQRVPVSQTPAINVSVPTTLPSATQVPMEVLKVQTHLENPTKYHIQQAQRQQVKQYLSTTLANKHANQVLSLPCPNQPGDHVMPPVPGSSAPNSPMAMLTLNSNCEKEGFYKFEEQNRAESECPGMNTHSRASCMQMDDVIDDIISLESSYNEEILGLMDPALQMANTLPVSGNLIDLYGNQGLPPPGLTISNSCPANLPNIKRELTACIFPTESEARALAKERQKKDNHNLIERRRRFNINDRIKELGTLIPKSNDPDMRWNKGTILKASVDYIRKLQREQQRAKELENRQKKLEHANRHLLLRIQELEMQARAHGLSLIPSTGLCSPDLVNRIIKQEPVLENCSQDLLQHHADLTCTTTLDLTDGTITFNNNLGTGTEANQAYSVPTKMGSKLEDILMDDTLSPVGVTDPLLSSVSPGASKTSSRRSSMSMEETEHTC

[10] = blockers of HIV-1 ZM109 envelope-driven cell-cell fusion – HeLa effector, CEM target cells, luciferase, cherry-pick, dose response (AID 652058); assay type: functional, cell-based;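 note: luciferase signal from HIV-1 Env mediated cell-cell fusion of effector and target cells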
[11] = alpha-synuclein stem-loop luciferase translation blockers – H4 neuroglioma cells, luminescence, confirmation (AID 1988); assay type: functional, cell-based
[12] = blockers of HIV-1 envelope-mediated cell-cell fusion – cherry-pick, dose response (AID 652057); assay type: functional, cell-based
[13] = HIV-1 AD8 envelope cell-cell fusion blockers – cherry-pick, dose response (AID 652062); assay type: functional, cell-based;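 note: luciferase signal from cell-cell fusion driven by HIV-1 clade B AD8 Env; potency is for inhibitors of fusion seen as a drop in luminescence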
[14] = luciferase reporter signal suppression in cells – H4 neuroglioma cells, luminescence, dose response (AID 1990); assay type: functional, cell-based
[15] = target: T3, Heat shock factor protein 1 (Mus musculus, UniProt P38532); assay: decrease of HSF1-responsive luciferase luminescence – cell-based, NIH3T3, dose retest, confirmation (AID 2382); assay type: functional;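 note: NIH3T3 fibroblasts with HSF1-driven luciferase reporter stressed by proteasome inhibitor MG132; luminescence from HSF1-driven luciferase expression after 8 hours of MG132 stress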
T3 sequence (P38532 whole entry): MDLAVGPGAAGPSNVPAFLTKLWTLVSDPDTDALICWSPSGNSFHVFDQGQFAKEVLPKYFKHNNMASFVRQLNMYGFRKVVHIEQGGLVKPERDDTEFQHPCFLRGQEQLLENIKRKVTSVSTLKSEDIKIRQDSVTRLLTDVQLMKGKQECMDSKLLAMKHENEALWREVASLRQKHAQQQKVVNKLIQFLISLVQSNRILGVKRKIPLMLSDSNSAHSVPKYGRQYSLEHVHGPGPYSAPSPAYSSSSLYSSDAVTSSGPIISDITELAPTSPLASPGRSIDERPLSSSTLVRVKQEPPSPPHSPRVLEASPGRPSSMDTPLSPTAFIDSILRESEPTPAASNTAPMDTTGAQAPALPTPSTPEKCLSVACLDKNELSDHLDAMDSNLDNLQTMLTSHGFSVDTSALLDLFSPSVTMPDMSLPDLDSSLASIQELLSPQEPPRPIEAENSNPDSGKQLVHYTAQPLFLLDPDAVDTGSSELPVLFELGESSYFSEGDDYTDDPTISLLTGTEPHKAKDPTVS

[16] = fluconazole-exposed Candida albicans growth modulators – fluorescence, retest, confirmation (AID 2467); assay type: functional, cell-based
[17] = NIH-3T3 fibroblast cytotoxicity, dose response, cytotoxicity control, cell-based, fluorescence, Alamar Blue, secondary assay (AID 2327); assay type: functional;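 note: NIH-3T3 mouse fibroblasts cultured with fluconazole at 8 µg/mL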
[18] = luciferase reporter signal reduction – luminescence, H4-C neuroglioblastoma cells, dose response (AID 2458); assay type: functional, cell-based;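 note: H4 neuroglioblastoma cells stably carrying a luciferase reporter gene fusion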
[19] = tested on: Streptococcus sp. 'group A'; assay: Streptococcus pyogenes SK(-)GAS viability under kanamycin – luminescence, BacTiterGlo, confirmation, counter-screen for streptokinase expression inhibitor project, dose response (AID 1900); assay type: functional, organism-based
INS1 = assay: INS-1E survival protection against cytokine death – cell-based, luminescence, retest, dose response (AID 449756); assay type: functional; conditions: Rattus norvegicus;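 note: cell death triggered by IL-1 beta plus TNF-alpha plus IFN-gamma mixture; protective hits raise ATP signal compared with cytokine alone wells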
[20] = target: ATP-dependent molecular chaperone HSP82 (Candida albicans (strain WO-1) (Yeast), UniProt C4YTQ8); assay: steroid-induced GRE reporter decrease in yeast – S. cerevisiae, luminescence, Hsp90 inhibitor project, dose response (AID 2400); assay type: functional, cell-based;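 note: beta-galactosidase luminescence from glucocorticoid response element reporter as proxy for Hsp90 function; inhibitor potency where signal loss means Hsp90 inhibition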
[21] = NIH3T3 cell viability loss – ATP luminescence, mouse fibroblasts, counter-screen, dose response (AID 2010); assay type: functional, cell-based;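 note: cells exposed to compound for about 90 hours before reading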
[22] = Trypanosoma cruzi growth suppression in host cells – NIH3T3 host cells, beta-gal luminescence, confirmation (AID 2044); assay type: functional, cell-based;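 note: intracellular parasites grown in NIH/3T3 mouse fibroblasts as host cells; luminescent beta-galactosidase reporter signal from transgenic T. cruzi replicating inside host cells; inhibitors lower the luminescence signal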
Streptococcus = assay: GAS UMAA2166 growth inhibition – luminescence, BacTiterGlo, counter-screen for streptokinase expression inhibitor project, dose response (AID 1915); assay type: functional, organism-based;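 note: potency for reduction of bacterial viability or growth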
Streptokinase A = target: T4, Streptokinase A (Streptococcus pyogenes serotype M1, UniProt P10520); assay: viability-normalized secreted streptokinase activity reduction – plasminogen activation absorbance, OD405, dose response (AID 1914); assay type: functional, Streptococcus pyogenes M1 GAS;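 note: secreted streptokinase activity via plasminogen activation per viability signal from cell pellet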
T4 sequence (P10520 whole entry): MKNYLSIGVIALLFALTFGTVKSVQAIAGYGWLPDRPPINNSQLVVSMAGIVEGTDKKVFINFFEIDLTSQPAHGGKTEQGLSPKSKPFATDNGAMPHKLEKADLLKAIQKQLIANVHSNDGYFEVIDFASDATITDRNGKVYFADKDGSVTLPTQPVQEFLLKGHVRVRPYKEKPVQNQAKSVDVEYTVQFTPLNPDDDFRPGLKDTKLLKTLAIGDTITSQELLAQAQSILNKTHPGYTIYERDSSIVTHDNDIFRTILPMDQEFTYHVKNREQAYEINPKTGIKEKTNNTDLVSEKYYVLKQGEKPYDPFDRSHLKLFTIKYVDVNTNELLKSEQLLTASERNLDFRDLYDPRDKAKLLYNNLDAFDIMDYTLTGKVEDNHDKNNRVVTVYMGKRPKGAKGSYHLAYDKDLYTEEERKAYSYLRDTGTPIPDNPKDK

[23] = target: G-protein coupled receptor 55 (Homo sapiens, UniProt Q9Y2T6); assay: selective activators of receptor GPR55 – imaging, U2OS cells, beta-arrestin-GFP redistribution, primary screen (AID 1961); assay type: functional
[24] = alpha-synuclein stem-loop translation blockers – luminescence, H4 neuroglioblastoma cells, dose confirmation, confirmation (AID 2454); assay type: functional, cell-based;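 note: H4 neuroglioblastoma cells carrying an alpha-synuclein 5'UTR luciferase reporter; potency for inhibition of the luciferase signal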
cells = assay type: functional, cell-based
[25] = target: T5, Serine/threonine-protein phosphatase (Candida dubliniensis (strain CD36 / CBS 7987 / NCPF 3949 / NRRLY-17841) (Yeast), UniProt B9W6M3); assay: blockers of CaCl2-induced CDRE-lacZ signaling – S. cerevisiae, luminescence, secondary, dose response (AID 2388); assay type: functional, cell-based;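 note: yeast reporter cells carrying a calcineurin-responsive lacZ construct stimulated with calcium chloride; luminescent beta-galactosidase reporter signal in whole cells rather than isolated phosphatase activity; potency for inhibition where a drop in reporter signal means calcineurin blockade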
T5 sequence (B9W6M3 whole entry): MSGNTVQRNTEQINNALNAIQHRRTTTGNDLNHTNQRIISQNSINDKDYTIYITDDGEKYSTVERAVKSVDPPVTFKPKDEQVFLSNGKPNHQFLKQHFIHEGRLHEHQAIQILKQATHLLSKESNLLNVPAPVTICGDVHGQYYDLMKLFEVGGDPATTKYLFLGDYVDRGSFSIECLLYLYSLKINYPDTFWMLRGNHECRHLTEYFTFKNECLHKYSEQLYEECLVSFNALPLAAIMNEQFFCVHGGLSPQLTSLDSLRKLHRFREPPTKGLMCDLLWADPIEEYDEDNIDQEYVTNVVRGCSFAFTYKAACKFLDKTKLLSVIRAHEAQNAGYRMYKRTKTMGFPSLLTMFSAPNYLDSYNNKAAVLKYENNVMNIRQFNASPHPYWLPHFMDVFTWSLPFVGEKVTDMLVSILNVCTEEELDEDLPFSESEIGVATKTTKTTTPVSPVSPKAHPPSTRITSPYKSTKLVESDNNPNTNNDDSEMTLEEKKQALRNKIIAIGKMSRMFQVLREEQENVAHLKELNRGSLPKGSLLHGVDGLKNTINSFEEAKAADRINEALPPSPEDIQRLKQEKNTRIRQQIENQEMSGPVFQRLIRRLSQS

H9c2 = assay: cells; assay type: functional, cell-based; conditions: Rattus norvegicus, H9c2, Myocardium;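 note: confirmatory concentration-response retest of ultra-high-throughput screening hits for modulation of myocardial damage; cell death induced by hydrogen peroxide oxidative stress; compound pretreatment for 60 min then peroxide exposure for 2 h; potency is for protecting the cells against peroxide damage rather than for killing them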
[26] = A Cell Based Secondary Assay To Explore Cytotoxicity of Compounds that Sensitize Mycobacterium Tuberculosis to Beta-Lactam Antibiotics.; assay type: functional

ATP-dependent molecular chaperone HSP82, sequence (C4YTQ8 whole entry): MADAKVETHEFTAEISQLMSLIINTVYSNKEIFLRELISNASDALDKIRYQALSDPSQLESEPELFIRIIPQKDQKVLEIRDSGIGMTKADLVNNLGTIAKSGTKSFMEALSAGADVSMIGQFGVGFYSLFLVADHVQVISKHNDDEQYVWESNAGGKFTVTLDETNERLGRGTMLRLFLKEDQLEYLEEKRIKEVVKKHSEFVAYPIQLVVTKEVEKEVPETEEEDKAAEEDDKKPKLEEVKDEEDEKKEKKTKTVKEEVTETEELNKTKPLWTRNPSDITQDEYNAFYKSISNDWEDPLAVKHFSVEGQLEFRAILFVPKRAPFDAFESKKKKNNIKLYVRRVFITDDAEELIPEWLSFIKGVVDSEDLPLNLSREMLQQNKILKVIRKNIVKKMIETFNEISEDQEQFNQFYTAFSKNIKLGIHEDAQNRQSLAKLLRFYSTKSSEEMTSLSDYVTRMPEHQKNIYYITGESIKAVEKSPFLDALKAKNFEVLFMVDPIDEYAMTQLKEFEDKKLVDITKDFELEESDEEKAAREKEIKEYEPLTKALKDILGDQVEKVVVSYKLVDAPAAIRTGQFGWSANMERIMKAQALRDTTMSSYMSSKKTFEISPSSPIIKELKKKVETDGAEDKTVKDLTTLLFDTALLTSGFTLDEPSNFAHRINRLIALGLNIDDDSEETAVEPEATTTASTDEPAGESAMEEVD
ADP-ribosylation factor GTPase-activating protein 1, sequence (Q62848 whole entry): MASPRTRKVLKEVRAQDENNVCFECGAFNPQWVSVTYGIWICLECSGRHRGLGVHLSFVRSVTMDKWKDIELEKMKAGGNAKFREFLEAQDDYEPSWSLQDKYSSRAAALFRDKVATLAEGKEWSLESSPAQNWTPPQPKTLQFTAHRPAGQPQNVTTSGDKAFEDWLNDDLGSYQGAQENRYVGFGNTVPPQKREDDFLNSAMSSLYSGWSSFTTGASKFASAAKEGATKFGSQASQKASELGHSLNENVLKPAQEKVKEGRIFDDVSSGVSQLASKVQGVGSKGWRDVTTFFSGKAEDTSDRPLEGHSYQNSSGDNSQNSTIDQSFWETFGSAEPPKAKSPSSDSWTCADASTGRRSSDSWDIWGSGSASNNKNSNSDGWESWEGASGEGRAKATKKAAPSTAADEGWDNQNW
G-protein coupled receptor 55, sequence (Q9Y2T6 whole entry): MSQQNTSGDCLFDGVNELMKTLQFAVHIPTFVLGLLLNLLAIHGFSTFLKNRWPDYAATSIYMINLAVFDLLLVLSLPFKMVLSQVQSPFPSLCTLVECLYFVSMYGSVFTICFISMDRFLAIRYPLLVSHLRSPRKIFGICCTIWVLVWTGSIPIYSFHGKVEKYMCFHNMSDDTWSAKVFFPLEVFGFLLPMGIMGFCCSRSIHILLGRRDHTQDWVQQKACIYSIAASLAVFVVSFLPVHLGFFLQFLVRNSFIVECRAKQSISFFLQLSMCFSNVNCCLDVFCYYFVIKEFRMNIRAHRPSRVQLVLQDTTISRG
Peroxisome proliferator-activated receptor gamma/Nuclear receptor coactivator 2, sequence (P37231 whole entry): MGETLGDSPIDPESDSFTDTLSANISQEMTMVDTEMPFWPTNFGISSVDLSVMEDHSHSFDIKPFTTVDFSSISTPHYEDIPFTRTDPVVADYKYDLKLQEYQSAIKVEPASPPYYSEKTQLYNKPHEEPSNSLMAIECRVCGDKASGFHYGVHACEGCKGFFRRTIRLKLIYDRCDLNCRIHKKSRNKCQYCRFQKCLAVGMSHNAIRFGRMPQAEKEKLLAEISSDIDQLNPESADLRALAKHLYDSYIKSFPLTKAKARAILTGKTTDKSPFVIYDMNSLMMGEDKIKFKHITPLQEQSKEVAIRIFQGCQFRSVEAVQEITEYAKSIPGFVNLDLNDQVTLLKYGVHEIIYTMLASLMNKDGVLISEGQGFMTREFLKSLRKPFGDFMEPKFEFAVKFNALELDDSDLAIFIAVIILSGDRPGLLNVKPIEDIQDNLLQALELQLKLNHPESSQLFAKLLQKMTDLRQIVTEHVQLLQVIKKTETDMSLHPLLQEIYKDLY
Peroxisome proliferator-activated receptor gamma/Nuclear receptor coactivator 2, sequence (Q15596 whole entry, further chain): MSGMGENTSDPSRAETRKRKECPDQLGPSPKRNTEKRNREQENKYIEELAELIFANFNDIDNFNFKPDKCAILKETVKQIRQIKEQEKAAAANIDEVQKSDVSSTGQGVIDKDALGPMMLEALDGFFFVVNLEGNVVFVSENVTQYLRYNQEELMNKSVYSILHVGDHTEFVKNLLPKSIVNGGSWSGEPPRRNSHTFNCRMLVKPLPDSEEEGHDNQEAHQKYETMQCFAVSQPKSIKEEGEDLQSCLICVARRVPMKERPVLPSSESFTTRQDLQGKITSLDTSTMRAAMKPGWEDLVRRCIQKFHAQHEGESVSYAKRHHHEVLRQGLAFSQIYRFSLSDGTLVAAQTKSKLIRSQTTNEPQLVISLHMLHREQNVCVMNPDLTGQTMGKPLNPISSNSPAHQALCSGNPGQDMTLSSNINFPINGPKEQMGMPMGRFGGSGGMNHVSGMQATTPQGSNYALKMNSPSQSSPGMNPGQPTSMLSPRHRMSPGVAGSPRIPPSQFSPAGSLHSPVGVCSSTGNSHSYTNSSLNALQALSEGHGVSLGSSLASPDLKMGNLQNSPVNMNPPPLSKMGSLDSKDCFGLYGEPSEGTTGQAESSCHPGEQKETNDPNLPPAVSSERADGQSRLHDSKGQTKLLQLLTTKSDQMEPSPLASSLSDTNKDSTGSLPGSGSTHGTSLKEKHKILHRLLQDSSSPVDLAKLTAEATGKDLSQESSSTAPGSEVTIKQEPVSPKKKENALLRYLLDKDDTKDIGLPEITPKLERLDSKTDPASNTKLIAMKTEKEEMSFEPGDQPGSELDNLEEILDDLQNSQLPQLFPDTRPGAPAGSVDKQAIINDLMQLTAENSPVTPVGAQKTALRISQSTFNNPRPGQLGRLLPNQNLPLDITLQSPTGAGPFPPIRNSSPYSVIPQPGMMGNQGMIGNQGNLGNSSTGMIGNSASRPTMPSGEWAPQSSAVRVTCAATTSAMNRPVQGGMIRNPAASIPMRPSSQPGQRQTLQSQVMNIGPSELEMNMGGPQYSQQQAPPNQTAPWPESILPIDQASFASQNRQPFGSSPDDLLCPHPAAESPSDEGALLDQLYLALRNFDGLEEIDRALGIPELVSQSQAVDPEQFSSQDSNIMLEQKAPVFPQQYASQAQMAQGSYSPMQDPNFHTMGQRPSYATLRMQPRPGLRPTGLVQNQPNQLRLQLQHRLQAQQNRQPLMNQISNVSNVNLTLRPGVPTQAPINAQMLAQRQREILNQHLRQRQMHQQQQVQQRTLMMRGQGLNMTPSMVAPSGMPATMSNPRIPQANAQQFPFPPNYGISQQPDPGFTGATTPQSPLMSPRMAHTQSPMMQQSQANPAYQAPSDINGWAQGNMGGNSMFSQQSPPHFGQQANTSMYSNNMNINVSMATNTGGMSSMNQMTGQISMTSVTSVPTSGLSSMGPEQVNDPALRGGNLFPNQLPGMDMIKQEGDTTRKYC

COc1ccccc1CNC(=O)CSc1nc(N)c(C#N)c(-c2cccs2)c1C#N
EC50 [1]: 67.6 µM (not active)
EC50 [2]: > 79.4 µM (not active)
IC50 [3]: 43.2 µM (inactive)
EC50 [4]: > 79.4 µM (not active)

CCC(C)N1CC(=O)C(c2nc3ccccc3[nH]2)=C1N (configuration not stated)
EC50 [5]: 98.9 µM (not active)

O=C(NC1=NCCS1)C1COc2ccccc2O1 (configuration not stated)
IC50 [6]: > 39.8 µM (not active)
AC50 [7]: 3.15 µM (active)
EC50 [8]: > 60 µM (not active)
AC50 [9]: 1.7 µM (active)
AC50 [10]: 13.7 µM (active)
EC50 [11]: 149 nM (active)
AC50 [12]: 1.62 µM (active)
AC50 [13]: 3.6 µM (active)
EC50 [14]: 3.37 µM (active)
EC50 [15]: 8.01 µM (active)

CC1CCN(Cc2c(C(=O)N/N=C/c3cc(Br)ccc3O)nnn2-c2nonc2N)CC1
EC50 [16]: 622 nM (active)
EC50 [17]: 35.2 µM (inconclusive)
EC50 [18]: 1.79 µM (active)
EC50 [19]: 4.79 µM (active)
AC50 (INS1): 365 nM (active)
EC50 [20]: > 160 µM (inactive)
EC50 [21]: 5.24 µM (active)
EC50 [22]: 556 nM (active)
EC50 [11]: < 100 nM (active)
EC50 (Streptococcus): 8.29 µM (active)
EC50 (Streptokinase A): 40.3 µM (inconclusive)
EC50 [23]: 1.63 µM (active)
EC50 [24]: > 12 µM (not active)
EC50 (cells): 982 nM (active)
EC50 [25]: > 180 µM (inactive)

Nc1c(C(=O)NC2CC2)c2nc3ccccc3nc2n1-c1ccc2c(c1)OCO2
IC50 (H9c2): > 79 µM (inactive)
CC50 [26]: > 40 µM (active)
